# Experimental data from US9772334B2, “Inflammatory bowel disease markers and therapies for colitis-associated intestinal fibrosis” (THE REGENTS OF THE UNIVERSITY OF CALIFORNIA, priority 2012, dated 2017).
# “Also recorded” adds a separate entry of the source.
# Columns and labels:
# [1] = system: TNFα expression in Raw264.7 macrophages; test: PAMP induced TNFα expression in Raw264.7 macrophages; format: cell-based, mouse; settings: for LPS induced TNFα expression under IGF-1R inhibition: IGF-1R inhibitor 10 μM pretreatment 30 minutes, LPS 0.1 μg/ml
# Protocol: (§1) To identify the anti-inflammatory mechanism of cathelicidin, human PBMCs and mouse macrophages to were exposed to PAMP signals (LPS and E. coli DNA) in the presence of cathelicidin LL-37 or mCRAMP (1-10 μM).
# CCD-18Co fibroblasts = test: β-tubulin expression and tubulin distribution in CCD-18Co fibroblasts; format: cell-based, human; settings: for tubulin distribution (tubulin tracker): 10 μM, 24 hours
# [2] = system: human colonic CCD-18Co fibroblasts; test: TGF-β1 and IGF-1 induced collagen (COL1A2) expression in CCD-18Co fibroblasts; format: cell-based
# Text: Collagen (COL1A2) and total ERK protein expression was detected by Western blot analyses and quantitative image densitometry.
# DSS mediated colitis [3] = test: DSS mediated colitis in mice, intraperitoneal sodium butyrate; format: in vivo
# Text: FIGS. 15A-15D show endogenous cathelicidin induction by sodium butyrate ameliorated DSS mediated colitis in mice. FIG. 15A is an illustration of the administration of DSS and/or sodium butyrate to mCRAMP deficient (Camp^−/−) and wild-type mice (i.e., the experimental plan).
# (§2) FIGS. 16A-16F show sodium butyrate inhibited colonic TNFα expression but not colonic microflora load. […] The decrease of TNFα levels in Camp^−/− mice was minimized (drop by 4 pg/μg protein), compared to wild-type mice (drop by 6 pg/μg protein). […] All experiments are representative of 3 independent experiments.
# To investigate the role of endogenous cathelicidin induction in the amelioration of acute colitis, mCRAMP deficient (Camp^−/−) and wild-type mice were administered with DSS and/or sodium butyrate as illustrated in FIG. 15A. DSS colitis led to significant tissue damages (FIG. 15C) with body weight loss (FIG. 15B) and increased histology score (FIG. 15C).
# Raw264.7 macrophages = test: Camp mRNA expression in Raw264.7 macrophages; format: cell-based, mouse; settings: 5 mM; 6 and 24 hours; serum starved
# [4] = system: human colonic epithelial NCM460 cells; test: Cathelicidin protein level in conditioned media of NCM460 cells; format: cell-based; settings: 5 mM; 16 hours; serum starved
# Text: as §2
# UC disease activity = settings: humans; Vernia et al. 2000; cited from earlier work
# DSS mediated colitis [5] = settings: animal models; Vieira et al. 2011; cited from earlier work
# [6] = system: human primary colonic fibroblasts; test: TGF-β1 and IGF-1 induced COL1A2 mRNA expression in human primary colonic fibroblasts; format: cell-based; settings: LL-37 5-10 μM; 24 hours; p=0.0108 and p=0.0049; concentration dependent
# Protocol: Camp mRNA in Camp^−/− mice was undetectable. […] Collagen (COL1A2) and total ERK protein expression was detected by Western blot analyses and quantitative image densitometry. […] TGF-β1 and IGF-1 induced COL1A2 mRNA expression in colonic fibroblasts (P=0.049) was inhibited by LL-37 (5-10 μM, p=0.001) in concentration dependent manner. […] TGF-β1 and IGF-1 induced COL1A2 mRNA expression in colonic fibroblasts (P=0.0233) was inhibited by LL-37 (5-10 μM, p=0.0108 and p=0.0049) in concentration dependent manner. All experiments are representative of 3 independent experiments.
# CCD-18Co = test: Cell migration of CCD-18Co in modified Boyden chamber; format: cell-based, human; settings: LL-37 0-10 μM; 37° C. for 8 hours
# Protocol: Fibroblasts accumulated in the mucosal and submucosal locations as collagen deposition. […] Three different locations (3 separate images) per sample were counted. […] Cell migration was not affected by LL-37 (0-10 μM). Results are representative of 3 independent experiments.
# [7] = system: TNFα expression in human PBMCs; test: PAMP induced TNFα protein expression in human PBMCs; format: cell-based; settings: 16 hours
# Protocol: as §1
# [8] = system: TNFα expression in fresh human colonic biopsies; test: LPS induced TNFα protein expression in fresh human colonic biopsies; format: cell-based; settings: LL-37 10 μM; LPS 0.1 μg/ml; 16 hours
# Protocol: Human intestinal biopsies were obtained from normal patients, UC patients and CD patients after informed consent in accordance with procedures established by the Cedars-Sinai Institutional Review Board, IRBs 3358 and 23705 and UCLA Institutional Review Board IRB 11-001527. Baseline characteristics were outlined in FIG. 12B. Some fresh biopsies were frozen until homogenization. Some fresh colonic biopsies were cut into ˜3×3 mm pieces and incubated in serum free DMEM with 1% penicillin/streptomycin (Invitrogen) and exposed to LPS and/or LL-37.
# NCM460 colonocytes = test: Apoptosis (cleaved PARP) in NCM460 colonocytes; format: cell-based, human; settings: LL-37 10 μM; proinflammatory cytokine cocktail or TNFα 10 ng/ml; 24 hours
# Protocol: NCM460 cells were treated with proinflammatory cytokines cocktail or TNFα (10 ng/ml) with or without LL-37 (10 μM) for 24 hours. Apoptosis signaling molecule cleaved PARP was determined by Western blot and quantification. […] All experiments are representative of 3 independent experiments.
# [9] = system: Akt and ERK phosphorylation in CCD-18Co fibroblasts; test: Akt and ERK phosphorylation in CCD-18Co fibroblasts (Western blot); settings: 30 minutes, concentration dependent
# [10] = inhibitor 10 μM pretreatment 30 minutes, 72 hours, p=0.0005
compound,measurement,setting,value
N#C/C(=C\c1ccc(O)c(O)c1)C(=O)c1ccc(O)c(O)c1 [AG538],LPS induced TNFα expression under IGF-1R inhibition,[1]; 16 hours,not affected
N#C/C(=C\c1ccc2oc(=O)[nH]c2c1)C(=O)c1ccc(O)c(O)c1 [AGL2263],LPS induced TNFα expression under IGF-1R inhibition,[1]; 16 hours,not affected
CN([C@@H](Cc1ccc(OS(=O)(=O)c2cccc3cnccc23)cc1)C(=O)N1CCN(c2ccccc2)CC1)S(=O)(=O)c1cccc2cnccc12 [KN62],effect on the anti-inflammatory effect of cathelicidin against LPS,"[1]; antagonist 10 μM pretreatment 30 minutes, mCRAMP 10 μM, 16 hours",did not alter the anti-inflammatory effect of cathelicidin
COc1cccc(-c2cc(=O)c3ccccc3o2)c1N [PD98059],involvement in the LL-37 mediated inhibition of β-tubulin expression,"CCD-18Co fibroblasts; inhibitor 10 μM pretreatment 30 minutes, LL-37 10 μM, 72 hours",not involved
N#CC(=C(/N)Sc1ccccc1N)/C(C#N)=C(\N)Sc1ccccc1N [U0126],LPS induced TNFα expression,[1],inhibited; also recorded: suppressed LPS induced TNFα expression
C=C1[C@@H](C)[C@H]2[C@H](Cc3ccccc3)NC(=O)[C@]23OC(=O)/C=C/[C@H](O)CCC[C@@H](C)C/C=C/[C@H]3[C@@H]1O [cytochalasin B],TGF-β1 and IGF-1 induced COL1A2 expression,[2]; [10],affected
same,tubulin distribution (tubulin tracker),CCD-18Co fibroblasts,shrunk tubulin network in cells
same,TGF-β1 and IGF-1 induced β-tubulin expression,CCD-18Co fibroblasts; [10],affected
CCCC(=O)[O-].[Na+] [sodium butyrate],decrease of colonic TNFα levels,DSS mediated colitis [3]; Camp−/− mice,21 % reduction
same,drop of colonic TNFα levels,DSS mediated colitis [3]; Camp−/− mice,4 pg/μg protein
same,"colonic microflora load (16S expression, PCR)",DSS mediated colitis [3]; DSS exposed mice,did not cause significant change; also recorded: did not alter colonic 16S expression
same,colonic Camp mRNA expression,DSS mediated colitis [3]; DSS treated mice,significantly induced; also recorded: further augmented
same,colonic mCRAMP protein expression (Western blot),DSS mediated colitis [3]; DSS treated wild-type mice,significantly induced; also recorded: increased colonic mCRAMP protein expression
same,colonic TNFα levels,"DSS mediated colitis [3]; both wild-type and Camp−/− mice, p=0.04",significantly reduced colonic TNFα levels
same,decrease of colonic TNFα levels,DSS mediated colitis [3]; wild-type mice,40 % reduction
same,drop of colonic TNFα levels,DSS mediated colitis [3]; wild-type mice,6 pg/μg protein
same,histology score,"DSS mediated colitis [3]; wild-type mice, intraperitoneal",significant decrease of histology score
same,Camp mRNA expression,Raw264.7 macrophages,significantly increased Camp mRNA expression
same,cathelicidin protein level in conditioned media,[4],significantly increased
same,clinical UC disease activity,UC disease activity,reduce clinical UC disease activity
same,DSS mediated colitis,DSS mediated colitis [5],reduce
LL-37 (LLGDFFRKSKEKIGKEFKRIVQRIKDFLRNLVPRTES),"TGF-β1 and IGF-1 induced COL1A2 expression (Western blot, densitometry)","[2]; 10 μM LL-37, TGF-β1 50 ng/ml and IGF-1 10 ng/ml, 48 hours, p=0.0001",significantly reduces; also recorded: reduced
same,TGF-β1 and IGF-1 induced COL1A2 mRNA expression,"[2]; LL-37 5-10 μM, 24 hours, p=0.001, concentration dependent",significantly reduces; also recorded: inhibited
same,TGF-β1 and IGF-1 induced COL1A2 mRNA expression,[6],inhibited
same,tubulin distribution (tubulin tracker),CCD-18Co fibroblasts,shrunk the tubulin network
same,β-tubulin expression,"CCD-18Co fibroblasts; LL-37 10 μM, 72 hours",inhibition
same,cell migration,CCD-18Co,not affected
same,LPS induced TNFα protein expression in conditioned media,"[7]; LL-37 10 μM, LPS 0.1 μg/ml",significantly reduced
same,E. coli DNA induced TNFα expression,"[7]; LL-37 1-10 μM, E. coli DNA 0.5 μg/ml",no inhibitory effect
same,LPS induced TNFα protein expression in conditioned media,[8],almost abolished
same,"apoptosis (cleaved PARP, Western blot)",NCM460 colonocytes,failed to reverse PARP cleavage; also recorded: did not affect apoptosis
same,ERK phosphorylation,[9]; LL-37 up to 10 μM,significantly induced
same,Akt phosphorylation,[9],significantly induced
mouse IGF-1: mouse insulin like growth factor-1,effect on the mCRAMP mediated inhibition of LPS induced TNFα secretion,"[1]; mouse IGF-1 80 pg/ml pretreatment 30 minutes, mCRAMP 10 μM, 16 hours",reversed the mCRAMP mediated inhibition
pertussis toxin,effect on the inhibitory effect of cathelicidin against LPS induced TNFα expression,"[1]; pertussis toxin 500 ng/ml pretreatment overnight, mCRAMP 1-10 μM, 16 hours",reversed; also recorded: revered
